Results on one compound are retold here after paper PMC5665883, “Antithrombotic properties of JJ1, a potent and novel thrombin inhibitor” (Scientific Reports, 2017).

Each structure is given as a SMILES string. pIC50, pKi: −log10 of the molar value.

One series addresses Streptokinase (Homo sapiens, UniProt P00747). The experiment in a line: Chromogenic substrate assay, Ki (Dixon). It counts as biochemical.
The target of a further series is T1, thrombin (Homo sapiens, UniProt P00734).
T1 construct: thrombin solution (150 μL, 10 U/mL) was added; purchased Haematologic Technologies (Essex Junction, VT)
Nature of the series: Thrombin activity assay (amidolytic activity, S-2238). It counts as biochemical. Particulars: α-Thrombin, chromogenic substrate; read-out: IC50, inhibition of amidolytic activity of thrombin (converted).

The subject of another series is human plasma. Nature of the series: In vitro aPTT clotting time. Conditions: for aPTT: in vitro. The format is biochemical. How it is done:
The aPTT and PT were determined using a Thrombotimer (Behnk Elektronik, Norderstedt, Germany) in accordance with the manufacturer’s instructions and as previously described. Briefly, citrated normal human plasma (90 μL) was mixed with 10 μL JJ1 and incubated for 1 min at 37 °C. Subsequently, the aPTT assay reagent (100 μL) was added, the plasma sample was incubated for an additional 1 min at 37 °C, 20 mM CaCl2 (100 μL) was added, and the clotting times were recorded. For the PT assays, citrated normal human plasma (90 μL) was mixed with 10 μL JJ1 stock solution and was incubated for 1 min at 37 °C. The PT assay reagent (200 μL), which had been pre-incubated for 10 min at 37 °C, was subsequently added and the clotting time was recorded. The PT results were expressed in seconds and as International Normalized Ratios (INR): INR = (PT sample/PT control)^ISI, where ISI = international sensitivity index. The aPTT results were also expressed in seconds. All experimental protocols (KNUH 2012-01-010) were approved by the Institutional Review Board of Kyungpook National University Hospitals (Daegu, Republic of Korea).

The target in a further series is T2, clot-bound thrombin (Homo sapiens, UniProt P00734).
T2 construct: Fibrin clots were formed by recalcification of citrated plasma and washed extensively; from tissue; host or cells: fibrin clots from recalcified citrated plasma
Nature of the series: Clot-bound thrombin assay, FPA generation (ELISA). It counts as biochemical. Particulars: 60 min of incubation, FPA by ELISA; read-out: IC50, inhibition of FPA generation by clot-bound thrombin. The procedure:
Fibrin clots were formed by recalcification of citrated plasma and washed extensively to remove any FPA trapped within the clots. Plasma was then placed over the washed clots and FPA generation was determined. There was a time-dependent generation of FPA in plasma that was not caused by the release of FPA trapped within the washed clots, because the addition of buffer over the clots produced only a minimal amount of FPA (5.25 ± 0.35 nM at 60 min) (Fig. 8). The endogenous FPA level was 5.05 ± 0.31 nM in these studies.
The generation of FPA in plasma with or without JJ1 was quantified in accordance with the manufacturer’s instructions by using a commercially available ELISA kit (LSBio, Seattle, WA). Values were measured using an ELISA plate reader (Tecan, Austria GmbH, Austria).
For orientation: An ELISA detects its analyte on a solid surface through an enzyme-linked reagent.

Series [1] deals with thrombin-catalyzed fibrin polymerization in human plasma. The experiment in a line: Thrombin-catalyzed fibrin polymerization. The format is biochemical. Particulars: absorbance at 360 nm. How it is done: Thrombin-catalyzed polymerization was determined every 6 s for 20 min by monitoring the turbidity of the solution at 360 nm at ambient temperature by using a spectrophotometer (TECAN, Männedorf, Switzerland). Control plasma and plasma incubated with JJ1 were diluted three-fold in […] and clotted with thrombin (final concentration: 0.5 U/mL). The maximum polymerization rate (Vmax, ΔmOD/min) from each absorbance curve was recorded.

The test system of another series is mouse platelet. The experiment in a line: Ex vivo thrombin-induced platelet aggregation. It counts as in vivo. Particulars: i.v. injection. The procedure: The in vitro platelet aggregation study was performed according to a previously reported method[59],[62]. Washed human platelets were incubated with the indicated concentration of JJ1 in DMSO for 1, 3, 5, or 10 min and subsequently stimulated by thrombin in 0.9% saline solution at 37 °C for 5 min. Platelet aggregation was recorded using an aggregometer (Chronolog, Havertown, PA, USA). For the ex vivo aggregation assay, male mice were fasted overnight and the indicated concentration of JJ1 in DMSO was administered by i.v. injection. After 24 h, PRP (10^9 platelets/mL) in a total volume of 240 μL was incubated at 37 °C for 1.5 min in the aggregometer with continuous stirring at 1000 rpm and subsequently stimulated with thrombin. Platelet aggregation was recorded as described above.

Series [2] in a line: Pharmacokinetics after i.v. injection. The format is in vivo. Conditions: mouse, plasma, iv, male C57BL/6 mice, 2 mg/kg, fasting. The procedure: The penile veins of male C57BL/6 mice were injected with 2 mg/kg JJ1. Approximately 50 μL of blood was obtained from the tail vein immediately before and at 5, 15, 30, 60, and 180 min after injection; 80 μL acetonitrile and internal standard solution (reserpine) were then added to these samples, and plasma samples (10 μL) were prepared by centrifugation of the blood at 13,000 rpm for 15 min at 4 °C. An aliquot (2 μL) of the supernatant was then injected into an HPLC column. The pharmacokinetic parameters were determined using the standard non-compartmental method. The area under the curve for serum was calculated using the log linear trapezoidal method on WinNonlin (version 2.0; Scientific Consulting, KY, USA). The samples were analyzed using an Accela^TM LC system coupled to a TSQ Vantage triple quadrupole mass spectrometer (Thermo Fisher Scientific Inc., USA) equipped with a HESI-II Spray source. For the LC analysis, an ACE® 5C18, 3 μm (2.1 × 50 mm) column was used. The mobile phases were (A) LC-grade® water containing 0.1% formic acid, and (B) LC grade acetonitrile containing 0.1% formic acid (B). This initial composition was increased to 95% solvent (B) for 3 minutes. The gradient program for HPLC used a flow rate of […]. […]

Series [3] can be described thus: Acute pulmonary thrombosis induced by collagen and epinephrine. The format is in vivo, C57BL/6 mice. Conditions: mice, i.v. 1 h before collagen (500 μg/kg) plus epinephrine (50 μg/kg). How it is done:
Male C57BL/6 mice were fasted overnight and divided into groups of 10 animals. JJ1 suspended in DMSO was administered to mice intravenously. After 1 h, a mixture of collagen (500 μg/kg) plus epinephrine (50 μg/kg) was injected into the tail vein of mice to induce acute thrombosis 1 h later. Each mouse was carefully examined for 15 min to determine whether the mouse was paralyzed, dead, or had recovered from the acute thrombotic challenge. Five separate experiments were performed and the results were subjected to statistical analysis.

Streptokinase, sequence (P00747 581-810 limits assumed): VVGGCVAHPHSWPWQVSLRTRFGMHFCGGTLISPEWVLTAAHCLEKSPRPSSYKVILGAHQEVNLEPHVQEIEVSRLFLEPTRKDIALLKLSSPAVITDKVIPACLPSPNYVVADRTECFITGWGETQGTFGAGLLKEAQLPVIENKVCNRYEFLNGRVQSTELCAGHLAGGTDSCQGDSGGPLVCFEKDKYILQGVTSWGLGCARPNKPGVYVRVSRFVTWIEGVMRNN
Procedure for Streptokinase: Chromogenic substrate assays were performed using a Labsystems IEMS (Cergy Pontoise, France) microtiter plate reader. K i values were calculated according to the method of Dixon[65]. In each assay, the compound was tested at a minimum of seven concentrations, in duplicate, to obtain an inhibition curve. The following general procedures were adopted for each assay. In a 96-well microtiter plate, 25 μL of inhibitor solution or buffer was added to 50 μL of substrate. The enzyme solution (25 μL) was added just before the plate was placed in the microtiter plate reader for 1 h at 37 °C. The hydrolysis of the substrate yields p-nitroaniline, which was continuously monitored spectrophotometrically at 405 nm. The maximal initial reaction rates were calculated and expressed as millioptical density per minute.

In general, pKi refers to the Ki on a negative log10 scale, so that one unit is a factor of ten. A high value points to a small Ki. By IC50 is commonly meant the concentration that gives 50% inhibition. In general, AUC refers to concentration integrated over time. Lower therefore signals low exposure. One may read the half-life as the time needed for the level to fall by half in the phase considered. Read a low half-life as rapid decline. Turning to `c1ccc2c(NC3CCCC3)nc(Nc3ccncc3)nc2c1` [JJ1], at Streptokinase (K i Streptokinase/K i α-thrombin), the Selectivity ratio is >10,000. The compound also had a negative logarithm of the Ki (pKi) on Streptokinase (Streptokinase) below 3.60. In addition, on thrombin, the IC50 was 0.15 µM. Also, in the series on human plasma, the “Concentration that doubled the clotting time, aPTT assay” value turned out to be 1.66 µM. In addition, the aPTT in the series with human plasma (0.05 μM) was determined as 23.5 ± 0.4 s; in the series on human plasma (0.1 μM) it was 23.3 ± 0.2 s; in the series with human plasma (0.2 μM) it was 24.2 ± 0.4 s; in the series on human plasma (0.5 μM), 32.4 ± 0.6 s; in the series on human plasma (1.0 μM) it was 41.3 ± 0.4 s; in the series on human plasma (2.0 μM), 50.4 ± 0.6 s. Also, the aPTT in the series on human plasma (5.0 μM) was 51.6 ± 0.4 s. For the same compound, the pIC50 at clot-bound thrombin is 5.61. The “Maximal rate of fibrin polymerization” value in series [1] is listed as “significantly decreased the maximal rate of fibrin polymerization”. The “Mouse platelet aggregation induced by thrombin, ex vivo” value with mouse platelet is “confirmed in an ex vivo platelet aggregation assay”. Besides, in series [2], the area under the curve (AUC) is 6100 ng·h/mL. Moreover, the half-life in series [2] was 3.1 h. Moreover, in series [3], the Mortality result is given as “decreased significantly”.
